Experimental data taken from US8334126B2, “Coryneform host-vector systems comprising a chromosomal ALR gene which is attenuated or eliminated and methods of using” (priority 2000, dated 2012).

Columns and labels:
[1] = test system: Corynebacterium glutamicum ATCC13032; assay: Minimum inhibitory concentration, dilution antimicrobial susceptibility test (NCCLS M7-A4); assay type: cell-based; settings: sensitive control strain ATCC13032; MÜLLER-HINTON-Bouillon
Excerpt: (§1) The nutrient medium required for this test, “MÜLLER-HINTON-Bouillon”, was obtained from Merck KgaA (Darmstadt, Germany) and employed in accordance with the manufacturer's instructions. […] The plasmid DNA isolated from Corynebacterium glutamicum LP-6 with the aid of an alkaline lysis method (“NucleoBond Nucleic Acid Purification Kits and Cartridges User Manual (PT3167-1)”, Clonetech Laboratories GmbH, Heidelberg, Germany, 1997 I.B.R.) was then transferred to Corynebacterium glutamicum ATCC13032 by electrotransfer.

[2] = test system: Corynebacterium glutamicum LP-6; settings: resistant test strain LP-6; MÜLLER-HINTON-Bouillon
Excerpt: as §1

[3] = test system: Corynebacterium glutamicum ATCC13032[pTET3]; assay: Minimum inhibitory concentration, dilution antimicrobial susceptibility test (NCCLS M7-A4); assay type: cell-based; settings: transformed strain ATCC13032[pTET3]; MÜLLER-HINTON-Bouillon
Excerpt: as §1

## CN(C)[C@@H]1C(O)=C(C(N)=O)C(=O)[C@@]2(O)C(O)=C3C(=O)c4c(O)cccc4[C@@](C)(O)[C@H]3C[C@@H]12 [Tetracycline, tetracycline]
[1]
  Minimum inhibitory concentration: ≦0.75 μg tetracycline per ml
[2]
  Minimum inhibitory concentration: ≦12 μg tetracycline per ml
[3]
  Minimum inhibitory concentration: ≦12 μg tetracycline per ml
